Assay results from patent publication US20240238423A9, “TETRAHYDROISOQUINOLINE HETEROBIFUNCTIONAL BCL-XL DEGRADERS” (Treeline Biosciences, Inc., priority 2022, published 2024).
Where two headings read alike, the source gives them in different places.

Molecular target: T1, Human BCL-XL protein (N-terminal HiBiT tagged BCL-XL in HT1080 cells) (Homo sapiens, UniProt Q07817)
T1 construct: expressed in transfected cells; host or cells: HT-1080 (ATCC CCL-121), stably transduced with lentivirus pLV-UBC-N-HiBiT-BCL-XL-PGK-puro and selected with puromycin
T1 sequence (Q07817 whole entry): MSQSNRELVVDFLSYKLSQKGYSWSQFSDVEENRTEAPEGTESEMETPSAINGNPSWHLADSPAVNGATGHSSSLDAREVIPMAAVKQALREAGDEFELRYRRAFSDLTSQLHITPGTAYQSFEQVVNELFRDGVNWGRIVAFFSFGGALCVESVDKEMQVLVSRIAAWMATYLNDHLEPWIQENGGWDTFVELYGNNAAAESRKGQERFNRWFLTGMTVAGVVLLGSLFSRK
Assay: HiBiT based degradation assay
Format: cell-based
Settings: HT1080 cells expressing HiBiT-BCL-XL; for Ymin (24 h) / Ymin (6 h): BCL-XL degradation normalized with DMSO control; for DC50: BCL-XL degradation
Outline: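 This HiBiT degradation assay measured loss of BCL-XL in HT1080 cells that stably express an N-terminal HiBiT-BCL-XL fusion delivered by lentivirus. Cells were added to compound-spotted 384-well plates, and luminescence was read on a PHERAstar FSX reader. Signal was expressed relative to DMSO controls, curves were fitted by four-parameter logistic regression, and for hook-shaped curves the Ymin point served as the bottom plateau when calculating EC50.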

Row | Structure (SMILES) | Ymin (24 h) | DC50 (24 h, read-out: EC50 (24 h)) | Ymin (6 h) | DC50 (6 h, read-out: EC50 (6 h))
1 | Cc1c(OCCO[C@@H]2C[C@H]3CC[C@@H](C2)N3CC(=O)Nc2ccc3c(C4CCC(=O)NC4=O)nn(C)c3c2)cccc1-c1ccc(N2CCc3cccc(C(=O)Nc4nc5ccccc5s4)c3C2)nc1C(=O)O (stereo partly drawn) [Compound 174b, 6-(8-(benzo[d]thiazol-2-ylcarbamoyl)-3,4-dihydroisoquinolin-2(1H)-yl)-3-(3-(2-(((1R,3s,5S)-8-(2-((3-(2,6-dioxopiperidin-3-yl)-1-methyl-1H-indazol-6-yl)amino)-2-oxoethyl)-8-azabicyclo[3.2.1]octan-3-yl)oxy)ethoxy)-2-methylphenyl)picolinic acid] | B (50% ≤ Ymin < 70%) | < 100 nM | C (Ymin ≥ 70%) | 100 to 1000 nM
2 | Cc1c(OCCCN2CCN(CC(=O)Nc3cccc4c(C5CCC(=O)NC5=O)nn(C)c34)[C@H](C(F)(F)F)C2)cccc1-c1ccc(N2CCc3cccc(C(=O)Nc4nc5ccccc5s4)c3C2)nc1C(=O)O (stereo partly drawn) [Compound 218b, 6-(8-(benzo[d]thiazol-2-ylcarbamoyl)-3,4-dihydroisoquinolin-2(1H)-yl)-3-(3-(3-((3S)-4-(2-((3-(2,6-dioxopiperidin-3-yl)-1-methyl-1H-indazol-7-yl)amino)-2-oxoethyl)-3-(trifluoromethyl)piperazin-1-yl)propoxy)-2-methylphenyl)picolinic acid] | C (Ymin ≥ 70%) | 100 to 1000 nM | C (Ymin ≥ 70%) | 1000 to 10000 nM
3 | Cc1c(OCCCCC2CCN(CC3CCN(c4ccc5c(C6CCC(=O)NC6=O)nn(C)c5c4)CC3)CC2)cccc1-c1ccc(N2CCc3cccc(C(=O)Nc4nc5ccccc5s4)c3C2)nc1C(=O)O (stereo not drawn) [Compound 257, 6-[8-(1,3-benzothiazol-2-ylcarbamoyl)-3,4-dihydro-1H-isoquinolin-2-yl]-3-[3-[4-[1-[[1-[3-(2,6-dioxo-3-piperidyl)-1-methyl-indazol-6-yl]-4-piperidyl]methyl]-4-piperidyl]butoxy]-2-methyl-phenyl]pyridine-2-carboxylic acid] | A (Ymin < 50%) | < 100 nM | – | –
4 | Cc1c(OCC2CC3(CCN(CC(=O)Nc4cccc5c(C6CCC(=O)NC6=O)nn(C)c45)CC3)C2)cccc1-c1ccc(N2CCc3cccc(C(=O)Nc4nc5ccccc5s4)c3C2)nc1C(=O)O (stereo not drawn) [Compound 226, 6-[8-(1,3-benzothiazol-2-ylcarbamoyl)-3,4-dihydro-1H-isoquinolin-2-yl]-3-[3-[[7-[2-[[3-(2,6-dioxo-3-piperidyl)-1-methyl-indazol-7-yl]amino]-2-oxo-ethyl]-7-azaspiro[3.5]nonan-2-yl]methoxy]-2-methyl-phenyl]pyridine-2-carboxylic acid] | B (50% ≤ Ymin < 70%) | 100 to 1000 nM | C (Ymin ≥ 70%) | < 100 nM

Second part, the compound after the results:

Row | Ymin (24 h) | DC50 (24 h, read-out: EC50 (24 h)) | Ymin (6 h) | DC50 (6 h, read-out: EC50 (6 h)) | Structure (SMILES)
5 | B (50% ≤ Ymin < 70%) | 100 to 1000 nM | – | – | Cc1c(O[C@H]2CC[C@@H](CCC(=O)N3CCN(c4cccc5c(C6CCC(=O)NC6=O)nn(C)c45)CC3)CC2)cccc1-c1ccc(N2CCc3cccc(C(=O)Nc4nc5ccccc5s4)c3C2)nc1C(=O)O (stereo partly drawn) [Compound 146b, 6-(8-(benzo[d]thiazol-2-ylcarbamoyl)-3,4-dihydroisoquinolin-2(1H)-yl)-3-(3-(((1s,4s)-4-(3-(4-(3-(2,6-dioxopiperidin-3-yl)-1-methyl-1H-indazol-7-yl)piperazin-1-yl)-3-oxopropyl)cyclohexyl)oxy)-2-methylphenyl)picolinic acid]
6 | A (Ymin < 50%) | < 100 nM | – | – | Cc1c(O[C@H]2CC[C@H](CC[C@@H](C)CN3CCN(c4ccc5c(C6CCC(=O)NC6=O)nn(C)c5c4)CC3)CC2)cccc1-c1ccc(N2CCc3cccc(C(=O)Nc4nc5ccccc5s4)c3C2)nc1C(=O)O (single isomer, unassigned) [Compound 308a]
7 | A (Ymin < 50%) | < 100 nM | – | – | Cc1c(O[C@H]2CC[C@H](C[C@@H](C)CN3CCN(c4ccc5c(C6CCC(=O)NC6=O)nn(C)c5c4)CC3)CC2)cccc1-c1ccc(N2CCc3cccc(C(=O)Nc4nc5ccccc5s4)c3C2)nc1C(=O)O (single isomer, unassigned) [Compound 282a]
8 | A (Ymin < 50%) | < 100 nM | – | – | Cc1c(O[C@H]2CC[C@H](CCCN3CC[C@H](c4ccc5c(C6CCC(=O)NC6=O)nn(C)c5c4)C3)CC2)cccc1-c1ccc(N2CCc3cccc(C(=O)Nc4nc5ccccc5s4)c3C2)nc1C(=O)O (single isomer, unassigned) [Compound 331a]
9 | A (Ymin < 50%) | < 100 nM | – | – | Cc1cc(O[C@@H](C)CCC2CCN(CC(=O)Nc3ccc4c(C5CCC(=O)NC5=O)nn(C)c4c3)CC2)ccc1-c1ccc(N2CCc3cccc(C(=O)Nc4nc5ccccc5s4)c3C2)nc1C(=O)O (stereo in doubt) [Compound 276b, 6-[8-(1,3-benzothiazol-2-ylcarbamoyl)-3,4-dihydro-1H-isoquinolin-2-yl]-3-[4-[(1S)-3-[1-[2-[[3-(2,6-dioxo-3-piperidyl)-1-methyl-indazol-6-yl]amino]-2-oxo-ethyl]-4-piperidyl]-1-methyl-propoxy]-2-methyl-phenyl]pyridine-2-carboxylic acid]
